# ± gives the expanded uncertainty stated by the source.
# Tests used:
# [1] = Crystal; Adiabatic calorimetry
# [2] = Molar enthalpy of transition or fusion; conditions: Crystal; Adiabatic calorimetry
# [3] = molar heat capacity at saturation pressure; conditions: Liquid, Vacuum adiabatic calorimetry
compound,measurement,setting,value
CC(C)C [2-methylpropane],Triple point temperature,[1],113.71 ± 0.07 K
same,Molar enthalpy of transition or fusion,[2],4.494 ± 0.02 kJ/mol
same,molar heat capacity,[3]; 116.8 K,99.97 ± 0.3 J/K/mol
same,molar heat capacity,[3]; 119.57 K,100.39 ± 0.3 J/K/mol
same,molar heat capacity,[3]; 122.23 K,100.86 ± 0.3 J/K/mol
same,molar heat capacity,[3]; 124.96 K,101.19 ± 0.3 J/K/mol
same,molar heat capacity,[3]; 127.55 K,101.83 ± 0.3 J/K/mol
same,molar heat capacity,[3]; 130.24 K,102.1 ± 0.3 J/K/mol
same,molar heat capacity,[3]; 132.77 K,102.54 ± 0.3 J/K/mol
same,molar heat capacity,[3]; 135.42 K,103.17 ± 0.3 J/K/mol
same,molar heat capacity,[3]; 137.9 K,103.68 ± 0.3 J/K/mol
same,molar heat capacity,[3]; 140.51 K,103.94 ± 0.3 J/K/mol
same,molar heat capacity,[3]; 142.95 K,104.41 ± 0.3 J/K/mol
same,molar heat capacity,[3]; 145.52 K,104.91 ± 0.3 J/K/mol
same,molar heat capacity,[3]; 147.92 K,105.3 ± 0.3 J/K/mol
same,molar heat capacity,[3]; 150.47 K,105.75 ± 0.31 J/K/mol
same,molar heat capacity,[3]; 152.83 K,106.16 ± 0.31 J/K/mol
same,molar heat capacity,[3]; 155.34 K,106.5 ± 0.31 J/K/mol
same,molar heat capacity,[3]; 157.66 K,107.02 ± 0.31 J/K/mol
same,molar heat capacity,[3]; 160.15 K,107.18 ± 0.31 J/K/mol
same,molar heat capacity,[3]; 162.44 K,107.78 ± 0.31 J/K/mol
same,molar heat capacity,[3]; 164.89 K,108.27 ± 0.31 J/K/mol
same,molar heat capacity,[3]; 167.16 K,108.62 ± 0.31 J/K/mol
same,molar heat capacity,[3]; 169.58 K,109.08 ± 0.31 J/K/mol
same,molar heat capacity,[3]; 171.82 K,109.17 ± 0.31 J/K/mol
same,molar heat capacity,[3]; 174.21 K,110.08 ± 0.31 J/K/mol
same,molar heat capacity,[3]; 176.43 K,110.08 ± 0.31 J/K/mol
same,molar heat capacity,[3]; 178.8 K,110.97 ± 0.31 J/K/mol
same,molar heat capacity,[3]; 180.99 K,111.25 ± 0.31 J/K/mol
same,molar heat capacity,[3]; 183.33 K,112.12 ± 0.31 J/K/mol
same,molar heat capacity,[3]; 185.5 K,112 ± 0.31 J/K/mol
same,molar heat capacity,[3]; 187.82 K,112.78 ± 0.31 J/K/mol
same,molar heat capacity,[3]; 189.97 K,112.81 ± 0.31 J/K/mol
same,molar heat capacity,[3]; 192.26 K,113.22 ± 0.31 J/K/mol
same,molar heat capacity,[3]; 194.39 K,113.72 ± 0.31 J/K/mol
same,molar heat capacity,[3]; 196.66 K,114.21 ± 0.31 J/K/mol
same,molar heat capacity,[3]; 198.77 K,114.75 ± 0.32 J/K/mol
same,molar heat capacity,[3]; 201.01 K,115.05 ± 0.32 J/K/mol
same,molar heat capacity,[3]; 203.11 K,115.61 ± 0.32 J/K/mol
same,molar heat capacity,[3]; 205.34 K,115.9 ± 0.32 J/K/mol
same,molar heat capacity,[3]; 207.41 K,116.35 ± 0.32 J/K/mol
same,molar heat capacity,[3]; 209.61 K,116.79 ± 0.32 J/K/mol
same,molar heat capacity,[3]; 211.67 K,117.4 ± 0.32 J/K/mol
same,molar heat capacity,[3]; 213.86 K,117.52 ± 0.32 J/K/mol
same,molar heat capacity,[3]; 215.9 K,118.12 ± 0.32 J/K/mol
same,molar heat capacity,[3]; 218.07 K,118.51 ± 0.32 J/K/mol
same,molar heat capacity,[3]; 220.09 K,118.79 ± 0.32 J/K/mol
same,molar heat capacity,[3]; 222.24 K,119.63 ± 0.32 J/K/mol
same,molar heat capacity,[3]; 224.25 K,119.86 ± 0.32 J/K/mol
same,molar heat capacity,[3]; 226.39 K,120.61 ± 0.32 J/K/mol
same,molar heat capacity,[3]; 228.38 K,121.07 ± 0.32 J/K/mol
same,molar heat capacity,[3]; 230.5 K,121.62 ± 0.32 J/K/mol
same,molar heat capacity,[3]; 232.48 K,121.93 ± 0.32 J/K/mol
same,molar heat capacity,[3]; 234.59 K,122.3 ± 0.32 J/K/mol
same,molar heat capacity,[3]; 236.55 K,122.62 ± 0.32 J/K/mol
same,molar heat capacity,[3]; 238.65 K,123.75 ± 0.32 J/K/mol
same,molar heat capacity,[3]; 240.59 K,123.7 ± 0.32 J/K/mol
same,molar heat capacity,[3]; 242.68 K,124.31 ± 0.32 J/K/mol
same,molar heat capacity,[3]; 244.61 K,124.72 ± 0.33 J/K/mol
same,molar heat capacity,[3]; 246.68 K,125.15 ± 0.33 J/K/mol
same,molar heat capacity,[3]; 248.6 K,125.88 ± 0.33 J/K/mol
same,molar heat capacity,[3]; 250.66 K,126.37 ± 0.33 J/K/mol
same,molar heat capacity,[3]; 252.57 K,126.78 ± 0.33 J/K/mol
same,molar heat capacity,[3]; 254.62 K,127.78 ± 0.33 J/K/mol
same,molar heat capacity,[3]; 256.52 K,127.81 ± 0.33 J/K/mol
same,molar heat capacity,[3]; 258.55 K,128.92 ± 0.33 J/K/mol
same,molar heat capacity,[3]; 260.45 K,128.69 ± 0.33 J/K/mol
same,molar heat capacity,[3]; 262.47 K,129.62 ± 0.33 J/K/mol
same,molar heat capacity,[3]; 264.35 K,129.86 ± 0.33 J/K/mol
same,molar heat capacity,[3]; 266.37 K,130.48 ± 0.33 J/K/mol
same,molar heat capacity,[3]; 268.24 K,131.47 ± 0.33 J/K/mol
same,molar heat capacity,[3]; 270.24 K,131.7 ± 0.33 J/K/mol
same,molar heat capacity,[3]; 272.11 K,132.45 ± 0.33 J/K/mol
same,molar heat capacity,[3]; 274.1 K,133.44 ± 0.33 J/K/mol
same,molar heat capacity,[3]; 275.96 K,133.56 ± 0.33 J/K/mol
same,molar heat capacity,[3]; 277.94 K,134.24 ± 0.33 J/K/mol
same,molar heat capacity,[3]; 279.8 K,134.7 ± 0.34 J/K/mol
same,molar heat capacity,[3]; 281.76 K,135.37 ± 0.34 J/K/mol
same,molar heat capacity,[3]; 283.62 K,135.69 ± 0.34 J/K/mol
same,molar heat capacity,[3]; 285.57 K,136.15 ± 0.34 J/K/mol
same,molar heat capacity,[3]; 287.43 K,137.7 ± 0.34 J/K/mol
same,molar heat capacity,[3]; 289.37 K,137.5 ± 0.34 J/K/mol
same,molar heat capacity,[3]; 291.23 K,138.84 ± 0.34 J/K/mol
same,molar heat capacity,[3]; 293.15 K,139.14 ± 0.34 J/K/mol
same,molar heat capacity,[3]; 295.01 K,139.36 ± 0.34 J/K/mol
same,molar heat capacity,[3]; 296.93 K,140.12 ± 0.34 J/K/mol
same,molar heat capacity,[3]; 298.78 K,140.84 ± 0.34 J/K/mol
same,molar heat capacity,[3]; 300.68 K,141.15 ± 0.34 J/K/mol
same,molar heat capacity,[3]; 302.54 K,142.6 ± 0.34 J/K/mol
same,molar heat capacity,[3]; 306.3 K,143.77 ± 0.34 J/K/mol
same,molar heat capacity,[3]; 308.17 K,143.87 ± 0.34 J/K/mol
same,molar heat capacity,[3]; 310.04 K,144.87 ± 0.34 J/K/mol
same,molar heat capacity,[3]; 311.91 K,146 ± 0.35 J/K/mol
same,molar heat capacity,[3]; 313.77 K,146.62 ± 0.35 J/K/mol
same,molar heat capacity,[3]; 315.63 K,147.42 ± 0.35 J/K/mol

# Reference: the NIST ThermoML archive (doi:10.1021/je9001575)
